Source: patent publication US7396837B2, “Antitumoral analogs of lamellarins” (Pharma Mar, S.A.U., priority 2002, dated 2008)
Where two headings read alike, the source gives them in different places.

How the values were obtained:
Assay type in all cases: cell-based
K-562 = assay: SRB colorimetric cell growth inhibition assay, K-562; conditions: for GI50: GI=growth inhibition, read-out: GI50 K-562; for CC50: cell killing (cytotoxic effect)
Method in brief: (§1)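 Human tumour cells continuously exposed to compound in 96-well culture; growth and viability quantified colorimetrically by sulforhodamine B staining. Mean ± SD from triplicate wells; GI (growth inhibition), TGI (total growth inhibition, cytostatic) and LC (cell killing, cytotoxic) parameters derived.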

IGROV = assay: SRB colorimetric cell growth inhibition assay, IGROV; conditions: IGROV; for CC50: cell killing (cytotoxic effect); for GI50: GI=growth inhibition, read-out: GI50 IGROV
Method in brief: as §1

SK-BR-3 = assay: SRB colorimetric cell growth inhibition assay, SK-BR-3; conditions: for GI50: GI=growth inhibition, read-out: GI50 SK-BR-3; for CC50: cell killing (cytotoxic effect)
Method in brief: as §1

LoVo-Dox = assay: SRB colorimetric cell growth inhibition assay, LoVo-Dox (MDR); conditions: for GI50: GI=growth inhibition, read-out: GI50 LOVO-DOX; for CC50: cell killing (cytotoxic effect)
Method in brief: as §1

HT-29 = assay: SRB colorimetric cell growth inhibition assay, HT-29; conditions: for GI50: GI=growth inhibition, read-out: GI50 HT-29; for CC50: cell killing (cytotoxic effect)
Method in brief: as §1

PANC-1 = assay: SRB colorimetric cell growth inhibition assay, PANC-1; conditions: for GI50: GI=growth inhibition, read-out: GI50 PANC-1; for CC50: cell killing (cytotoxic effect)
Method in brief: as §1

SK-MEL-28 = assay: SRB colorimetric cell growth inhibition assay, SK-MEL-28; conditions: for GI50: GI=growth inhibition, read-out: GI50 MEL-28; for CC50: cell killing (cytotoxic effect)
Method in brief: as §1

IGROV-ET = assay: SRB colorimetric cell growth inhibition assay, IGROV-ET (ET-743 resistant); conditions: for GI50: GI=growth inhibition, read-out: GI50 IGROV-ET; for CC50: cell killing (cytotoxic effect)
Method in brief: as §1

DU-145 = assay: SRB colorimetric cell growth inhibition assay, DU-145; conditions: for GI50: GI=growth inhibition, read-out: GI50 DU-145; for CC50: cell killing (cytotoxic effect)
Method in brief: as §1

LoVo = assay: SRB colorimetric cell growth inhibition assay, LoVo; conditions: for CC50: cell killing (cytotoxic effect); for GI50: GI=growth inhibition, read-out: GI50 LOVO
Method in brief: as §1

HeLa = assay: SRB colorimetric cell growth inhibition assay, HeLa; conditions: for CC50: cell killing (cytotoxic effect); for GI50: GI=growth inhibition, read-out: GI50 HELA
Method in brief: as §1

A-549 = assay: SRB colorimetric cell growth inhibition assay, A-549; conditions: for GI50: GI=growth inhibition, read-out: GI50 A-549; for CC50: cell killing (cytotoxic effect)
Method in brief: as §1

LNCaP = assay: SRB colorimetric cell growth inhibition assay, LNCaP; conditions: for GI50: GI=growth inhibition, read-out: GI50 LN-caP; for CC50: cell killing (cytotoxic effect)
Method in brief: as §1

HeLa-APL = assay: SRB colorimetric cell growth inhibition assay, HeLa-APL (aplidine resistant); conditions: for GI50: read-out: GI50 HELA-APL; for CC50: cell killing (cytotoxic effect)
Method in brief: as §1

In the case of `COc1cc(-c2c3c4cc(OC)c(OC(=O)[C@@H](N)CO)cc4oc(=O)c3n3ccc4c(OC(=O)[C@@H](N)CO)c(OC)c(OC)cc4c23)ccc1OC(=O)[C@@H](N)CO` [Compound 9], the GI50 (K-562; Homo sapiens, K562, K-562) is reported as 47.3 nM, the IC (TGI) (K-562; Homo sapiens, K562, K-562, total growth inhibition (cytostatic effect), read-out: TGI K-562) is reported as 311 nM and the CC50 (K-562; Homo sapiens, K562, read-out: LC50 K-562, K-562) is reported as 4180 nM. For the same compound, the CC50 (IGROV; Homo sapiens, read-out: LC50 IGROV, IGROV) was 3000 nM, the GI50 (IGROV; Homo sapiens) was 182 nM and the IC (TGI) (IGROV; Homo sapiens, total growth inhibition (cytostatic effect), read-out: TGI IGROV) was 909 nM. The GI50 (SK-BR-3; Homo sapiens, SK-BR-3, SK-BR-3) was 174 nM, the IC (TGI) (SK-BR-3; Homo sapiens, SK-BR-3, SK-BR-3, total growth inhibition (cytostatic effect), read-out: TGI SK-BR-3) was 374 nM and the CC50 (SK-BR-3; Homo sapiens, SK-BR-3, read-out: LC50 SK-BR-3, SK-BR-3) was 806 nM. The GI50 (LoVo-Dox; Homo sapiens, LOVO-DOX) was 388 nM, the IC (TGI) (LoVo-Dox; Homo sapiens, LOVO-DOX, total growth inhibition (cytostatic effect), read-out: TGI LOVO-DOX) was 1140 nM and the CC50 (LoVo-Dox; Homo sapiens, read-out: LC50 LOVO-DOX, LOVO-DOX) was 3630 nM. For the same compound, the GI50 (HT-29; Homo sapiens, HT-29, HT-29) was 1610 nM, the IC (TGI) (HT-29; Homo sapiens, HT-29, HT-29, total growth inhibition (cytostatic effect), read-out: TGI HT-29) was 3280 nM and the CC50 (HT-29; Homo sapiens, HT-29, read-out: LC50 HT-29, HT-29) was 6660 nM. For the same compound, the GI50 (PANC-1; Homo sapiens, PANC-1, PANC-1) was 200 nM, the IC (TGI) (PANC-1; Homo sapiens, PANC-1, PANC-1, total growth inhibition (cytostatic effect), read-out: TGI PANC-1) was 1560 nM and the CC50 (PANC-1; Homo sapiens, PANC-1, read-out: LC50 PANC-1, PANC-1) was 4910 nM. For the same compound, the GI50 (SK-MEL-28; Homo sapiens, SK-MEL-28, MEL-28) was 134 nM, the IC (TGI) (SK-MEL-28; Homo sapiens, SK-MEL-28, MEL-28, total growth inhibition (cytostatic effect), read-out: TGI MEL-28) was 516 nM and the CC50 (SK-MEL-28; Homo sapiens, SK-MEL-28, read-out: LC50 MEL-28, MEL-28) was 2110 nM. It also gave a GI50 (IGROV-ET; Homo sapiens, IGROV-ET) of 132 nM, an IC (TGI) (IGROV-ET; Homo sapiens, IGROV-ET, total growth inhibition (cytostatic effect), read-out: TGI IGROV-ET) of 980 nM and a CC50 (IGROV-ET; Homo sapiens, read-out: LC50 IGROV-ET, IGROV-ET) of 493 nM. For the same compound, the GI50 (DU-145; Homo sapiens, DU-145, DU-145) was 54.3 nM, the IC (TGI) (DU-145; Homo sapiens, DU-145, DU-145, total growth inhibition (cytostatic effect), read-out: TGI DU-145) was 169 nM and the CC50 (DU-145; Homo sapiens, DU-145, read-out: LC50 DU-145, DU-145) was 615 nM. For the same compound, the CC50 (LoVo; Homo sapiens, LoVo, read-out: LC50 LOVO, LOVO) was 2300 nM, the GI50 (LoVo; Homo sapiens, LoVo) was 243 nM and the IC (TGI) (LoVo; Homo sapiens, LoVo, total growth inhibition (cytostatic effect), read-out: TGI LOVO) was 584 nM. For the same compound, the CC50 (HeLa; Homo sapiens, HeLa, read-out: LC50 HELA, HELA) was 4060 nM, the IC (TGI) (HeLa; Homo sapiens, HeLa, read-out: TGI HELA) was 459 nM and the GI50 (HeLa; Homo sapiens, HeLa) was 107 nM. For the same compound, the GI50 (A-549; Homo sapiens, A549, A-549) was 323 nM, the IC (TGI) (A-549; Homo sapiens, A549, A-549, total growth inhibition (cytostatic effect), read-out: TGI A-549) was 1150 nM and the CC50 (A-549; Homo sapiens, A549, read-out: LC50 A-549, A-549) was 6760 nM. For the same compound, the GI50 (LNCaP; Homo sapiens, LNCaP, LN-caP) was 174 nM, the IC (TGI) (LNCaP; Homo sapiens, LNCaP, LN-caP, total growth inhibition (cytostatic effect), read-out: TGI LN-caP) was 422 nM and the CC50 (LNCaP; Homo sapiens, LNCaP, read-out: LC50 LN-caP, LN-caP) was 1380 nM. The GI50 (HeLa-APL; Homo sapiens) was 282 nM, the CC50 (HeLa-APL; Homo sapiens, read-out: LC50 HELA-APL, HELA-APL) was 3830 nM and the IC (TGI) (HeLa-APL; Homo sapiens, read-out: TGI HELA-APL) was 1230 nM.
With `COc1cc(-c2c3c4cc(OC)c(OC(=O)[C@H](C)N)cc4oc(=O)c3n3ccc4c(OC(=O)[C@H](C)N)c(OC)c(OC)cc4c23)ccc1OC(=O)[C@H](C)N` [Compound 16] the GI50 (K-562; Homo sapiens, K562, K-562) was 183 nM, the CC50 (K-562; K-562, read-out: LC50 K-562) was 2230 nM and the “TGI K-562” value (K-562; K-562, total growth inhibition (cytostatic effect)) was 4.45E−07 Molar. For the same compound, the GI50 (IGROV) was 226 nM, the CC50 (IGROV; read-out: LC50 IGROV) was 1590 nM and the “TGI IGROV” value (IGROV; total growth inhibition (cytostatic effect)) was 4.78E−07 Molar. For the same compound, the GI50 (SK-BR-3; SK-BR-3) was 207 nM, the CC50 (SK-BR-3; SK-BR-3, read-out: LC50 SK-BR-3) was 816 nM and the “TGI SK-BR-3” value (SK-BR-3; SK-BR-3, total growth inhibition (cytostatic effect)) was 4.11E−07 Molar. For the same compound, the GI50 (LoVo-Dox; Homo sapiens, LOVO-DOX) was 420 nM, the CC50 (LoVo-Dox; LOVO-DOX, read-out: LC50 LOVO-DOX) was 4420 nM and the “TGI LOVO-DOX” value (LoVo-Dox; LOVO-DOX, total growth inhibition (cytostatic effect)) was 1.03E−06 Molar. For the same compound, the GI50 (HT-29; HT-29) was 411 nM, the CC50 (HT-29; HT-29, read-out: LC50 HT-29) was 5000 nM and the “TGI HT-29” value (HT-29; HT-29, total growth inhibition (cytostatic effect)) was 9.31E−07 Molar. The GI50 (PANC-1; PANC-1) was 241 nM, the CC50 (PANC-1; PANC-1, read-out: LC50 PANC-1) was 3340 nM and the “TGI PANC-1” value (PANC-1; PANC-1, total growth inhibition (cytostatic effect)) was 7.56E−07 Molar. For the same compound, the GI50 (SK-MEL-28; MEL-28) was 138 nM, the CC50 (SK-MEL-28; MEL-28, read-out: LC50 MEL-28) was 669 nM and the “TGI MEL-28” value (SK-MEL-28; MEL-28, total growth inhibition (cytostatic effect)) was 3.04E−07 Molar. For the same compound, the GI50 (IGROV-ET; IGROV-ET) was 278 nM, the CC50 (IGROV-ET; IGROV-ET, read-out: LC50 IGROV-ET) was 897 nM and the “TGI IGROV-ET” value (IGROV-ET; IGROV-ET, total growth inhibition (cytostatic effect)) was 5.00E−07 Molar. For the same compound, the GI50 (DU-145; DU-145) was 52.7 nM, the CC50 (DU-145; DU-145, read-out: LC50 DU-145) was 2800 nM and the “TGI DU-145” value (DU-145; DU-145, total growth inhibition (cytostatic effect)) was 2.98E−07 Molar. The GI50 (LoVo; LOVO) was 196 nM, the CC50 (LoVo; LOVO, read-out: LC50 LOVO) was 612 nM and the “TGI LOVO” value (LoVo; LOVO, total growth inhibition (cytostatic effect)) was 3.47E−07 Molar. For the same compound, the GI50 (HeLa; HELA) was 193 nM, the CC50 (HeLa; HELA, read-out: LC50 HELA) was 703 nM and the “TGI HELA” value (HeLa; HELA, total growth inhibition (cytostatic effect)) was 3.68E−07 Molar. For the same compound, the GI50 (A-549; A-549) was 178 nM, the CC50 (A-549; A-549, read-out: LC50 A-549) was 3050 nM and the “TGI A-549” value (A-549; A-549, total growth inhibition (cytostatic effect)) was 5.02E−07 Molar. For the same compound, the GI50 (LNCaP; LN-caP) was 131 nM, the CC50 (LNCaP; LN-caP, read-out: LC50 LN-caP) was 534 nM and the “TGI LN-caP” value (LNCaP; LN-caP, total growth inhibition (cytostatic effect)) was 2.65E−07 Molar. The GI50 (HeLa-APL; HELA-APL, GI=growth inhibition) was 229 nM, the CC50 (HeLa-APL; HELA-APL, read-out: LC50 HELA-APL) was 2380 nM and the “TGI HELA-APL” value (HeLa-APL; HELA-APL, total growth inhibition (cytostatic effect)) was 5.20E−07 Molar.
